In test [1] the target is T1, Peregrin (Homo sapiens) (UniProt P55201).
T1 sequence (whole entry): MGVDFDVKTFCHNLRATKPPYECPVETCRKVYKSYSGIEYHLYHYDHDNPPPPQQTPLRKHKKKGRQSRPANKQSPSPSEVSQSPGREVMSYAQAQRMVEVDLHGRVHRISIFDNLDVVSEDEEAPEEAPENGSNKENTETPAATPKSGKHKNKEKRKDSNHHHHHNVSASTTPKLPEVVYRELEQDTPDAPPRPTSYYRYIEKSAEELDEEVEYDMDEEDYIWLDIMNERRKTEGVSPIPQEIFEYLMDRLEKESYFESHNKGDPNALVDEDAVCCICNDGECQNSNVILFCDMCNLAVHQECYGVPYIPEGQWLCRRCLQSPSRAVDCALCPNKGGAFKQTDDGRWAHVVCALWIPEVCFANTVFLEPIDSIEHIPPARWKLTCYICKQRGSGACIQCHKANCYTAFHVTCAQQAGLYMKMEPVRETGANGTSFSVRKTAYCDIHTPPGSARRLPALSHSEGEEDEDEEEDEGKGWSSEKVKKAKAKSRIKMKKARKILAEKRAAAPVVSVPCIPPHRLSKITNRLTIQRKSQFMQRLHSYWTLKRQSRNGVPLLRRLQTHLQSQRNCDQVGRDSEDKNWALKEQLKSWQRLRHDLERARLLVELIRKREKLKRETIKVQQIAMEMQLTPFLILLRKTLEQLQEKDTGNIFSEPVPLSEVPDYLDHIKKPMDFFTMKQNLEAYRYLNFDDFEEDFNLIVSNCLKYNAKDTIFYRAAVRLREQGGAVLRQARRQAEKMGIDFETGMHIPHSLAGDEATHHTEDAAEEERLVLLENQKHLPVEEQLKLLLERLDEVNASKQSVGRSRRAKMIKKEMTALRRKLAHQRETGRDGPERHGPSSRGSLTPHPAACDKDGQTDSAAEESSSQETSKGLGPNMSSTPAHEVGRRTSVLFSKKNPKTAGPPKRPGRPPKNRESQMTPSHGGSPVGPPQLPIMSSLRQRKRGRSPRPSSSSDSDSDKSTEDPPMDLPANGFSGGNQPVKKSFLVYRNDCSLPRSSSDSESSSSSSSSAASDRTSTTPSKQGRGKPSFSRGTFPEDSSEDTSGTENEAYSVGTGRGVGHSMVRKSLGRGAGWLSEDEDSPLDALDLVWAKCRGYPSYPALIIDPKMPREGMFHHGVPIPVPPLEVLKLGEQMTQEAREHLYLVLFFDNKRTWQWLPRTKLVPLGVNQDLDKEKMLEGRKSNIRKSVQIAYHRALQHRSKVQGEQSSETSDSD
Conditions: Compound concentration 20.0 uM, Protein concentration 2.0 uM, Result type QC Liability.

Test [2] deals with Fibroblast growth factor receptor 3 (Homo sapiens) (UniProt P22607). The following applies: Compound concentration 20.0 uM, Protein concentration 2.0 uM, Result type QC Liability.
Description: Thermal Shift Assay. Domain: start/stop: P449-E759

45 compounds from ChEMBL document CHEMBL5308504, “Tm Shift (DSF) assay results for EUbOPEN Chemogenomics Library” (2023) can be followed below.

Several values for one entry are separate records, joined by “and”; a condition that tells them apart may be missing. Equal entries are not always repeated.

Chain of Fibroblast growth factor receptor 3 (Homo sapiens) (P22607 23-806 limits assumed): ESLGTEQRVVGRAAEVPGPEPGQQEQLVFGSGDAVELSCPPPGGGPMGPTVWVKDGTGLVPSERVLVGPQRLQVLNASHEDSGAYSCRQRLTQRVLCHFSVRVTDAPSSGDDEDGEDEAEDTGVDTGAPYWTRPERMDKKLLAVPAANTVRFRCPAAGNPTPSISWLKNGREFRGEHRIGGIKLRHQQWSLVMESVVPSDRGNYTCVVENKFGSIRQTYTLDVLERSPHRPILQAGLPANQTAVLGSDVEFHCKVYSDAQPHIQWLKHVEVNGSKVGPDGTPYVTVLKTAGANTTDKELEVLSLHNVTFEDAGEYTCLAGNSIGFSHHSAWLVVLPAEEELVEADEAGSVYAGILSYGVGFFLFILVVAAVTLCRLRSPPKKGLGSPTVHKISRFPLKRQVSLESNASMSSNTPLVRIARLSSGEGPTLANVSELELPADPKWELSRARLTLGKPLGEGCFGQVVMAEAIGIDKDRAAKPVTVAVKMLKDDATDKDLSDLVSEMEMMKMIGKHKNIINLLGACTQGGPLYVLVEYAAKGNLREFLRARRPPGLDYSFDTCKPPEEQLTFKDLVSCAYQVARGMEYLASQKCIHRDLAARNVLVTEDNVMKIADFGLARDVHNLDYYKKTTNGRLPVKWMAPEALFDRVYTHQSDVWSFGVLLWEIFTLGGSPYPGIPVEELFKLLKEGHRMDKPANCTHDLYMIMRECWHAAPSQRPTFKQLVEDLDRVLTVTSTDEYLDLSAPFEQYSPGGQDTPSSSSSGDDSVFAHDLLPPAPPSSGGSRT

As to `Cc1cc2c(cc(C(=O)N[C@H](CO)c3ccc(S(=O)(=O)CC(=O)O)cc3)n2C)c(Cl)c1Cl`, the ΔTm in test [1] is -3.03 °C; in test [2], 0.16 °C.
Turning to `COc1cc(CN(CCN)C(=O)N[C@@H](C)c2ccccc2)ccc1OCc1ccccc1`, the ΔTm in test [1] is -2.05 °C; in test [2], 0.47 °C.
On the same counts, the results for `Cc1nnc2n1-c1sc(CCC(=O)N3CCOCC3)cc1C(c1ccccc1Cl)=NC2` are -2.21 °C and 1.44 °C.
On the same counts, the results for `C[C@]12CC[C@@H]3c4ccc(C(N)=O)cc4CC[C@H]3[C@@H]1CC=C2c1cncc(F)c1` are -4.27 °C and 0.92 °C.
On the same counts, the results for `O=C(NC1CCNCC1)c1n[nH]cc1NC(=O)c1c(Cl)cccc1Cl` are -1.28 °C and 0.78 °C.
On to `CC[C@H](CO)Nc1nc(Nc2cccc(-c3ccccn3)c2)c2ncn(C(C)C)c2n1`, for which the ΔTm in test [1] was -2.18 °C; in test [2], 2.78 °C.
Turning to `COc1cc(C)c(S(=O)(=O)N(C)CCOCC(=O)N(C)[C@H]2CCC[C@@H](N3CCN(C)CC3)C2)c(C)c1`, the ΔTm in test [1] is -2.36 °C; in test [2], 0.64 °C.
On to `C=CC(=O)Nc1cccc(C(=O)Nc2ccc(Nc3cc(-c4c(-c5ccc(F)cc5)nc(SC)n4C)ccn3)cc2)c1`, for which the ΔTm in test [1] was 0.18 °C; in test [2], -0.43 °C.
Consider `OC(c1ccc(-c2ccc(CN3CCN(Cc4ccncc4)CC3)cc2)c(F)c1)(C(F)(F)F)C(F)(F)F`, for which the ΔTm in test [1] was -2.07 °C; in test [2], 0.64 °C.
Take `CCN1C(=O)N(c2c(F)c(OC)cc(OC)c2F)Cc2cnc3[nH]c(CN4CCOCC4)cc3c21`: the ΔTm in test [1] is -0.68 °C; in test [2], 11.8 °C.
On the same counts, the results for `NC(=O)c1sc2nc(N3CCC(NC[C@H](O)c4ccccn4)CC3)cc(C(F)(F)F)c2c1N` are -0.86 °C and 1.99 °C.
Turning to `COCCOCn1c(S(C)(=O)=O)nc2c1c(=O)n(C)c(=O)n2C`, the values for the shift in melting temperature (ΔTm) in test [1] and in test [2] were -2.72 °C and 0.45 °C, respectively.
Consider `O=C(CNCc1cc2ccccc2[nH]1)N[C@H]1CC[C@@H](c2nc3ccccc3[nH]2)CC1`, for which the ΔTm in test [1] is 0.07 °C; in test [2] it was 0.46 °C.
With `C[C@H](CCC(=O)O)[C@H]1CC[C@H]2[C@@H]3[C@@H](O)C[C@@H]4C[C@H](O)CC[C@]4(C)[C@H]3CC[C@]12C`, the figures for the ΔTm in test [1] and in test [2] were -1.31 °C and 0.96 °C, respectively.
Turning to `Cn1cncc1-c1cn(-c2cccc(C(=O)Nc3cccc(C(F)(F)F)c3)c2)nn1`, the ΔTm is -1.49 °C in test [1] and -9.32 °C in test [2].
On to `CN(C)[C@H]1CCc2nc(NC(=O)c3cccc(Cn4cc(-c5ccc(C#N)cc5)cn4)c3)sc2C1`, for which the ΔTm in test [1] was 0.07 °C; in test [2], 0.81 °C.
As for `CCN1C(=O)C(c2cccc(C(=O)O)c2)C(=O)N(c2ccccc2)c2cc(C(F)(F)F)ccc21` (stereo not given), the results for the ΔTm in test [1] and in test [2] were -1.55 °C and 0.62 °C, respectively.
Consider `CC[C@H](CC(=O)O)n1c(=O)c2ncccc2n(Cc2cn(C)c3cc(C)cc(C)c23)c1=O`, for which the ΔTm in test [1] was -2.28 °C and -0.95 °C; in test [2], 0.98 °C and 0.62 °C.
Regarding `COc1cc2ncnc(Nc3ccc4c(cnn4Cc4ccccc4)c3)c2cc1OC`, the ΔTm in test [1] was -1.65 °C; in test [2], 1.75 °C.
On the same counts, the results for `CCn1c(=O)c2c(C)c(C(=O)N3CCC(O)CC3)sc2n(CCC(F)(F)F)c1=O` are -1.95 °C and 0.45 °C.
In the case of `Cc1nc2ccccc2c(-c2ccc3c4c(ccnc24)CCO3)c1[C@H](OC(C)(C)C)C(=O)O`, the ΔTm was -2.17 °C in test [1] and 0.36 °C in test [2].
On the same counts, the results for `CNc1ncc2cc(-c3ccc(-c4ncccc4F)cc3Cl)c(=O)n(C[C@H]3OC[C@H](N)CO3)c2n1` are -1.11 °C and 2.03 °C.
On the same counts, the results for `COc1ccc(-c2cc3c(C)nc(N)nc3n([C@H]3CC[C@H](OCCO)CC3)c2=O)cn1` are 0.08 °C and 0.24 °C.
On the same counts, the results for `Cn1cc(-n2cnc3c(NCc4nc5cc(Cl)c(Cl)cc5[nH]4)nc(N4CCOCC4)nc32)cn1` are -0.07 °C and 0.69 °C.
With `Cc1cc(Cn2c(N3CC4(CNC4)C3)nc3c(N4CCN(C)CC4)cc(Cl)cc32)cc(C)c1F`, the ΔTm in test [1] was -3.49 °C; in test [2], 0.86 °C.
On the same counts, the results for `O=C(CCCN1CCC(O)(c2ccc(Cl)cc2)CC1)c1ccc(F)cc1` are -1.6 °C and 0.59 °C.
On the same counts, the results for `CCNc1ccc(-c2nn(-c3ccccc3C)c3c2C(C)Cc2nc(NC(=O)OC)sc2-3)cn1` (stereo not given) are -1.43 °C and 0.96 °C.
For `C=CC(=O)N1CCC[C@@H](n2nc(-c3ccc(Oc4ccccc4)cc3)c3c(N)ncnc32)C1`, the ΔTm in test [1] was -1.17 °C; in test [2], -1.1 °C.
Consider `Cc1ncc(C(=O)Nc2cc(C(C)(C)C)on2)cc1-n1cc(-c2cnn(C)c2C)nn1`, for which the figures for the ΔTm in test [1] and in test [2] were 0.08 °C and 2.95 °C, respectively.
In the case of `Cc1nc2cccnc2n2c(-c3cc(C(C)(C)O)ncc3Cl)nnc12`, the ΔTm was -3.02 °C in test [1] and 1.25 °C in test [2].
Consider `CC(C)(C)c1cc(NC(=O)c2csc(Nc3ccc(Cl)cc3)n2)no1`, for which the values for the thermal shift (ΔTm) in test [1] and in test [2] were -0.02 °C and 1.46 °C, respectively.
Take `Cc1cc2c(ncn2C2(C)CN(C(=O)c3ccn(CC4CCN([C@H]5C=CCCCC5)CC4)c3)C2)c(N)n1`: the ΔTm in test [1] was -0.47 °C; in test [2] it was 0.4 °C.
On the same counts, the results for `CN1C(=O)Cc2ccc(-c3ccc(C[C@@H](C#N)NC(=O)[C@H]4N[C@@H]5CC[C@H]4C5)c(F)c3)cc21` are 0.36 °C and 0.73 °C.
On the same counts, the results for `COc1ccc(CC[C@@H](OC(=O)[C@@H]2CCCCN2C(=O)[C@H](c2cc(OC)c(OC)c(OC)c2)C2CCCCC2)c2cccc(OCCN3CCOCC3)c2)cc1OC` are -5.77 °C and -3.93 °C.
On to `CN1Cc2nccc(-c3cn(C)nc3-c3ccc(F)cc3)c2C1=O`, for which the values for the ΔTm in test [1] and in test [2] were -1.84 °C and 0.27 °C, respectively.
In the case of `COc1ccc(CC[C@@H](OC(=O)[C@H]2CCCCN2C(=O)[C@@H](c2cc(OC)c(OC)c(OC)c2)C2CCCCC2)c2cccc(OCCN3CCOCC3)c2)cc1OC`, the ΔTm in test [1] was -4.81 °C; in test [2] it was -3.96 °C.
In the case of `Oc1c(CN2CCCC2)cc(COCc2ccccc2)c2cccnc12`, the ΔTm is -2.08 °C in test [1] and 0.61 °C in test [2].
On the same counts, the results for `COc1cc(-c2cn(C)c(=O)c3cnccc23)c(OC)cc1CN(C)C` are 0.44 °C and 0.84 °C.
Take `O=C(O)CCCCN(CCc1cc(F)ccc1OCc1ccc(-c2ccc(C(F)(F)F)cc2)cc1)Cc1ccc(C(=O)O)cc1`: the ΔTm in test [1] is -3.03 °C; in test [2] it was -0.36 °C.
Take `Cc1c(NC(=O)COc2ccc(Cl)cc2C(=O)c2cc(F)cc(C(F)(F)F)c2)ccc(C(=O)O)c1F`: the ΔTm in test [1] was -2.51 °C and -1.17 °C; in test [2], 0.45 °C and 3.99 °C.
Turning to `C[C@H](NC(=O)c1cc(Cl)ccc1Oc1ccc(F)cc1)c1ccc(C(=O)O)cc1`, the ΔTm is -3.01 °C in test [1] and 0.47 °C in test [2].
On the same counts, the results for `CC(C)C(=O)N1CCC(c2cn(C)c3ncc(NC(=O)c4cccc(C#N)c4)c(C(F)(F)F)c23)CC1` are 0.27 °C and 0.79 °C.
On the same counts, the results for `CCN1C(=O)c2cc(C)ccc2N(C)c2ncccc21` are -1.83 °C and 0.59 °C.
`COc1cc(-c2cc3ncccc3c(O[C@H](C)[C@H]3CNC(=O)C3)n2)cc(OC)c1OC`: the thermal shift (ΔTm) was -2.14 °C and -1.33 °C in test [1]; 1.61 °C and 1.56 °C in test [2].
For the compound `CS(=O)(=O)c1ccc(-c2cnc(N)c(C(=O)Nc3ccccc3)n2)cc1`, the ΔTm is -1.36 °C in test [1] and 1.51 °C in test [2].

Usually ΔTm stands for the change in melting temperature against a reference sample.
